In PMC6927578 (Archiv der Pharmazie, 2016):
Where two headings read alike, the source gives them in different places.

Key:
[1] = tested on: HDAC activity from HeLa cell lysates; assay: Fluor de Lys in vitro fluorescence HDAC activity assay with HeLa cell lysates; assay type: biochemical, human; conditions: for % activity remaining / IC50: HeLa cell lysates; for % activity remaining: 250 μM compound; for IC50: mean of three trials with standard error; for fold reduced potency compared to SAHA: HeLa cell lysates IC50 ratio
[2] = Solubility observed in the HDAC assay; assay type: physicochemical; conditions: assay conditions; prevented testing above 250 μM
[3] = biological target: HDAC1 (Homo sapiens, UniProt Q13547); assay: Fluor de Lys HDAC isoform assay, HDAC1; conditions: for isoform selectivity among HDAC1, 3 and 6: 125 μM single concentration screen (Fig. 2)
Chain of HDAC1 (Q13547 whole entry, canonical isoform): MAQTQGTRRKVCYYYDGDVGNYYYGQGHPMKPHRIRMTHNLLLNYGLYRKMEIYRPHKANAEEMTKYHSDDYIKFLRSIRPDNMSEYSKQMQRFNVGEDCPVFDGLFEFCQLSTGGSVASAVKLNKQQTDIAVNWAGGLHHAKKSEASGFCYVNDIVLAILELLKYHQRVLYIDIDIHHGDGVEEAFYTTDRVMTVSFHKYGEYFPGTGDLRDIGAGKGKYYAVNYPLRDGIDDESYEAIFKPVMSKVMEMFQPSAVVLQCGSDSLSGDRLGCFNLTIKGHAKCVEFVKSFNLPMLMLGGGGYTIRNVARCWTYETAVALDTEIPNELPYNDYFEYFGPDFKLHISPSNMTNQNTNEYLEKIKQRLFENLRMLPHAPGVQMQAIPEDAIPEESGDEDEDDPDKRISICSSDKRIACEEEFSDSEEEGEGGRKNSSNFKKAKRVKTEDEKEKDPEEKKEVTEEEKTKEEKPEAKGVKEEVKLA

[4] = biological target: T1, HDAC6 (Homo sapiens, UniProt Q9UBN7); assay: Fluor de Lys HDAC isoform assay, HDAC6
T1 sequence (Q9UBN7 1-1215): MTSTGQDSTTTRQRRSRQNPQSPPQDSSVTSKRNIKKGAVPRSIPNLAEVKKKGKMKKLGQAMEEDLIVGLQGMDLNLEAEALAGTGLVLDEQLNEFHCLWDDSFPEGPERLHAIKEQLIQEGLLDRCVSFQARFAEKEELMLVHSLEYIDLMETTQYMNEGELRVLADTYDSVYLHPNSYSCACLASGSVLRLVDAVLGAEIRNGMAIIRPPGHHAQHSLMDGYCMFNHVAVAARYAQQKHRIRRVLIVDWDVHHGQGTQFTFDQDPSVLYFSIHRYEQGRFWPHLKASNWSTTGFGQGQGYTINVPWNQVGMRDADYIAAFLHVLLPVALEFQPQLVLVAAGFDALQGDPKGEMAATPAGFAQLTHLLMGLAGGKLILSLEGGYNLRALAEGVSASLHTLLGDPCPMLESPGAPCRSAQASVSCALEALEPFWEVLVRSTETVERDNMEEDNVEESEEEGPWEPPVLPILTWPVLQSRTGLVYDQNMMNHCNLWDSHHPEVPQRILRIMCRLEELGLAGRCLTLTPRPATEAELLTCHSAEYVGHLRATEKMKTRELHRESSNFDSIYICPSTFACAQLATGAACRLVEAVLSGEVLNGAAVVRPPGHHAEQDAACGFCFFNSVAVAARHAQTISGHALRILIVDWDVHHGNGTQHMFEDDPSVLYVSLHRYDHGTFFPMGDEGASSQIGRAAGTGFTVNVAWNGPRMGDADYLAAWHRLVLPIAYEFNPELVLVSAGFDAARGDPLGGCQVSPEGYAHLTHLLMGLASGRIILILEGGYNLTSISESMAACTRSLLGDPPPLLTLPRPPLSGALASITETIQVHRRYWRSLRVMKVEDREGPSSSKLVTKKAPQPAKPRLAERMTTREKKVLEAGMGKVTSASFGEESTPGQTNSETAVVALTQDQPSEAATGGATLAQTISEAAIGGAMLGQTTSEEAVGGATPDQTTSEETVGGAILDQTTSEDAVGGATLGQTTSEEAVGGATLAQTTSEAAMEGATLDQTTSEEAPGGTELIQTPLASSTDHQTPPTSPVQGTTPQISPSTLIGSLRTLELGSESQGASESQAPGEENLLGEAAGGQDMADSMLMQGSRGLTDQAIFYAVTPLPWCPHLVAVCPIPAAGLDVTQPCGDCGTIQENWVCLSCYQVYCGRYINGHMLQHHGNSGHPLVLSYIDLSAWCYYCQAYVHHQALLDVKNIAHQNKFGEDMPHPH

[5] = biological target: HDAC3 (Homo sapiens, UniProt O15379); assay: Fluor de Lys HDAC isoform assay, HDAC3
Chain of HDAC3 (O15379 whole entry, canonical isoform): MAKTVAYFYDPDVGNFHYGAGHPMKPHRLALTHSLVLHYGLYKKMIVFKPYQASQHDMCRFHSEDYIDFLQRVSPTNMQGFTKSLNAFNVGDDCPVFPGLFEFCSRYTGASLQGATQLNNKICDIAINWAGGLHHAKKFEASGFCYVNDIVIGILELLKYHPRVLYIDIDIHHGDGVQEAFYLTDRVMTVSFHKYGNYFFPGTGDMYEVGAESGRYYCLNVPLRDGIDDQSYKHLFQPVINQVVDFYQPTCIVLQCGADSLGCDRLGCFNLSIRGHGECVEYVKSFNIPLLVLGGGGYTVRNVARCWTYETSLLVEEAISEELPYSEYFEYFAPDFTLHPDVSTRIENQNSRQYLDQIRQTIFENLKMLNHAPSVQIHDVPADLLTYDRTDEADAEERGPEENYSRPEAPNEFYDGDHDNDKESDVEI
Chain of HDAC3 (Q9Y618 395-489 partner limits assumed): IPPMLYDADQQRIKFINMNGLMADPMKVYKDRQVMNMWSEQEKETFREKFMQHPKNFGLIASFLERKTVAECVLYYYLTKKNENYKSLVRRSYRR

[6] = 125 μM single concentration screen

| Structure (SMILES) | IC50 [1] [µM] | isoform selectivity among HDAC1, 3 and 6 [3] | IC50 [4] [µM] | IC50 [5] [µM] | IC50 [3] [µM] | preference for HDAC1 versus HDAC3 ([3]; ratio of IC50 values) [fold] | % activity remaining [1] | solubility [2] | fold reduced potency compared to SAHA [1] [fold] | inhibition of HDAC6 [4, 6] | inhibition of HDAC3 [5, 6] | activity remaining, HDAC1 [3, 6] [%] | IC50 ([3]; read-out: IC50 HDAC1, mean of at least three trials with standard error) [µM] |
| --- | --- | --- | --- | --- | --- | --- | --- | --- | --- | --- | --- | --- | --- |
| O=C(CCCCCCC(=O)N(O)CCc1ccccc1)Nc1ccccc1 [Compound 2d, N^1-hydroxy-N^1-phenethyl-N^8-phenyloctanediamide] | > 500 | roughly similar potency against the isoforms |  |  |  |  | 80 ± 2% activity at 250 μM^b) | low solubility at high concentrations |  |  |  |  |  |
| O=C(CCCCCCC(=O)N(O)Cc1ccccc1)Nc1ccccc1 [Compound 2c, N^1-benzyl-N^1-hydroxy-N^8-phenyloctanediamide] | 293 ± 32 | preferential HDAC1 inhibition | 287 ± 9 | 440 ± 23 | 177 ± 21 | 2.5 |  |  |  |  |  |  |  |
| O=C(CCCCCCC(=O)N(O)Cc1ccc(-c2ccccc2)cc1)Nc1ccccc1 [Compound 2e, N^1-(biphenyl-4-methyl)-N^1-hydroxy-N^8-phenyloctanediamide] | > 500 | preferential HDAC1 inhibition |  |  |  |  | 101 ± 1% activity with 250 μM^b) | low solubility at high concentrations |  | statistically insignificant inhibition | statistically insignificant inhibition | 58±2 | 233 ± 40 |

Further lines, with some results ahead:

| IC50 [1] [µM] | isoform selectivity among HDAC1, 3 and 6 [3] | IC50 [4] [µM] | IC50 [5] [µM] | IC50 [3] [µM] | preference for HDAC1 versus HDAC3 ([3]; ratio of IC50 values) [fold] | Structure (SMILES) | % activity remaining [1] | solubility [2] | fold reduced potency compared to SAHA [1] [fold] | inhibition of HDAC6 [4, 6] | inhibition of HDAC3 [5, 6] | activity remaining, HDAC1 [3, 6] [%] | IC50 ([3]; read-out: IC50 HDAC1, mean of at least three trials with standard error) [µM] |
| --- | --- | --- | --- | --- | --- | --- | --- | --- | --- | --- | --- | --- | --- |
| 153 ± 14 | little to no isoform selectivity |  |  |  |  | CCCCCN(O)C(=O)CCCCCCC(=O)Nc1ccccc1 [Compound 2b, N^1-pentyl-N^1-hydroxy-N^8-phenyloctanediamide] |  |  | 1700 |  |  |  |  |
| 794 ± 41 | little to no isoform selectivity |  |  |  |  | CN(O)C(=O)CCCCCCC(=O)Nc1ccccc1 [Compound 2a, N^1-hydroxy-N^1-methyl-N^8-phenyloctanediamide] |  |  | > 8800 |  |  |  |  |
